Data: ChEMBL document CHEMBL1125669, “Synthesis of potential dual-acting radiation sensitizer antineoplastic agents: 2,2-dimethylphosphoraziridines containing 2-nitroimidazoles or other electron-affinic moieties” (1991)

Experiments:
Format in all cases: functional
Mus musculus [1] = assay: In vivo antitumor activity against P-388 leukemia in CDF1 mice at 128 mg or 373 umol by ip administration expressed as median survival time of drug treated mice/median survival time of control mice x100
Mus musculus [2] = assay: In vivo antitumor activity against P-388 leukemia in CDF1 mice at 32 mg or 93 umol by ip administration expressed as average wt. change determined between day 0 and day 6 of experiment
Mus musculus [3] = assay: In vivo antitumor activity against P-388 leukemia in CDF1 mice at 8 mg or 23 umol by ip administration expressed as median survival time of drug treated mice/median survival time of control mice x100
Mus musculus [4] = assay: In vivo antitumor activity against P-388 leukemia in CDF1 mice at 128 mg or 373 umol by ip administration expressed as average wt. change determined between day 0 and day 6 of experiment
Mus musculus [5] = assay: In vivo antitumor activity against P-388 leukemia in CDF1 mice at 256 mg or 746 umol by ip administration expressed as average wt. change determined between day 0 and day 6 of experiment
Mus musculus [6] = assay: In vivo antitumor activity against P-388 leukemia in CDF1 mice at 16 mg or 47 umol by ip administration expressed as median survival time of drug treated mice/median survival time of control mice x100
Mus musculus [7] = assay: In vivo antitumor activity against P-388 leukemia in CDF1 mice at 8 mg or 23 umol by ip administration expressed as average wt. change determined between day 0 and day 6 of experiment
Mus musculus [8] = assay: In vivo antitumor activity against P-388 leukemia in CDF1 mice at 16 mg or 47 umol by ip administration expressed as average wt. change determined between day 0 and day 6 of experiment
Mus musculus [9] = assay: In vivo antitumor activity against P-388 leukemia in CDF1 mice at 64 mg or 186 umol by ip administration expressed as average wt. change determined between day 0 and day 6 of experiment
Mus musculus [10] = assay: In vivo antitumor activity against P-388 leukemia in CDF1 mice at 64 mg or 186 umol by ip administration expressed as median survival time of drug treated mice/median survival time of control mice x100
Mus musculus [11] = assay: In vivo antitumor activity against P-388 leukemia in CDF1 mice at 32 mg or 93 umol by ip administration expressed as median survival time of drug treated mice/median survival time of control mice x100
Mus musculus [12] = assay: In vivo antitumor activity against P-388 leukemia in CDF1 mice at 256 mg or 746 umol by ip administration expressed as median survival time of drug treated mice/median survival time of control mice x100

With CC1(C)CN1P(=O)(OCCn1ccnc1[N+](=O)[O-])N1CC1(C)C (configuration not stated) the T/C (Mus musculus [1]) was 189%, the Average weight change (Mus musculus [2]) was -0.9 g and the T/C (Mus musculus [3]) was 106%. For the same molecule, the Average weight change (Mus musculus [4]) was -1.3 g, the Average weight change (Mus musculus [5]) was -2.8 g and the T/C (Mus musculus [6]) was 122%. It also gave an Average weight change (Mus musculus [7]) of 0.2 g, an Average weight change (Mus musculus [8]) of 0.1 g and an Average weight change (Mus musculus [9]) of -1.1 g. For the same molecule, the T/C (Mus musculus [10]) was 150%, the T/C (Mus musculus [11]) was 111% and the T/C (Mus musculus [12]) was 228%.
